The text below walks through data of patent US20230341397A1, “PROTEASE BIOSENSORS AND METHODS OF VIRUS DETECTION” (Montana Molecular LLC, priority 2020, published 2023).

Each structure is given as a SMILES string.

Data set [1] deals with HEK 293 cells. The conditions noted are these: all GC376 concentrations (FIG. 11B).
The subject of data set [2] is feline infectious peritonitis virus (FPIV). The conditions noted are these: Kim et al. 2016; disease otherwise 100% lethal; cited from earlier work.

In the case of `CC(C)C[C@H](NC(=O)OCc1ccccc1)C(=O)N[C@@H](C[C@@H]1CCNC1=O)C(O)S(=O)(=O)[O-].[Na+]` (some centres unmarked) [GC376], the “cell death / red fluorescent protein signal” value in data set [1] is recorded as “not due to cell death”. In data set [2], the “outcome in cats with clinical FPIV” value was “rescues them”.
